Results published in paper PMC5902538, “Metabolic benefits of 1-(3-(4-(o-tolyl)piperazin-1-yl)propyl)pyrrolidin-2-one: a non-selective α-adrenoceptor antagonist” (Journal of Endocrinological Investigation, 2017).

Legend:
Assay type in all cases: cell-based
[1] = biological target: T1, α1A-adrenoceptor (Homo sapiens, UniProt P35348); assay: intrinsic activity (antagonist) assay in ready-to-use cells stably expressing the receptor (Invitrogen)
T1 construct: gene ADRA1A
T1 sequence (P35348 1-466): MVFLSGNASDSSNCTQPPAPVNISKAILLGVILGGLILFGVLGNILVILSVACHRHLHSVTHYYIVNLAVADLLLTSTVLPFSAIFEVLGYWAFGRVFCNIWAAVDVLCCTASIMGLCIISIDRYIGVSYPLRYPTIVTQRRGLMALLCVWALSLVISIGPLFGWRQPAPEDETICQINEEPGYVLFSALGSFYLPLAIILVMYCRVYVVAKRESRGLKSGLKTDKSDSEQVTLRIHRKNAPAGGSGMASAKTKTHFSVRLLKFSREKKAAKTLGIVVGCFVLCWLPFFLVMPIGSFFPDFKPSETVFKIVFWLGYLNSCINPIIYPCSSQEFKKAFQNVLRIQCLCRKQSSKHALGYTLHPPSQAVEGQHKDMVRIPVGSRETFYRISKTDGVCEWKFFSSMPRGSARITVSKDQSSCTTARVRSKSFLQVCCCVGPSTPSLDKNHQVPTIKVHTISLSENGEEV

[2] = biological target: T2, α1B-adrenoceptor (Homo sapiens, UniProt P35368); assay: intrinsic activity (antagonist) assay in ready-to-use cells stably expressing the receptor (Perkin Elmer)
T2 construct: gene ADRA1B
T2 sequence (P35368 1-520): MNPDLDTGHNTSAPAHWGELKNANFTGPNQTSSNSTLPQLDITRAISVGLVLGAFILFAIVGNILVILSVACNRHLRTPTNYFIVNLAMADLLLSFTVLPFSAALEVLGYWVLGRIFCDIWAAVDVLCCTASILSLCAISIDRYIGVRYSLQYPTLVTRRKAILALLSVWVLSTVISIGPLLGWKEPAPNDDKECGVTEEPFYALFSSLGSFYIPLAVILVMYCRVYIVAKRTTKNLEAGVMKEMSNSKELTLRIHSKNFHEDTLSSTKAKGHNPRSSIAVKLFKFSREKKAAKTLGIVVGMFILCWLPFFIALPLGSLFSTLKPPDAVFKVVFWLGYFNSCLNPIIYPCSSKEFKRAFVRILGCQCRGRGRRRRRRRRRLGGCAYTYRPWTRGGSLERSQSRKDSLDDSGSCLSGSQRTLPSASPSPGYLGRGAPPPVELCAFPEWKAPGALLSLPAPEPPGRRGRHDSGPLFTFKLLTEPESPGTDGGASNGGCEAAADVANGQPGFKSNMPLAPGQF

[3] = biological target: T3, α2B-adrenoceptor (Homo sapiens, UniProt P18089); assay: as above
T3 construct: gene ADRA2B
T3 sequence (P18089 1-450): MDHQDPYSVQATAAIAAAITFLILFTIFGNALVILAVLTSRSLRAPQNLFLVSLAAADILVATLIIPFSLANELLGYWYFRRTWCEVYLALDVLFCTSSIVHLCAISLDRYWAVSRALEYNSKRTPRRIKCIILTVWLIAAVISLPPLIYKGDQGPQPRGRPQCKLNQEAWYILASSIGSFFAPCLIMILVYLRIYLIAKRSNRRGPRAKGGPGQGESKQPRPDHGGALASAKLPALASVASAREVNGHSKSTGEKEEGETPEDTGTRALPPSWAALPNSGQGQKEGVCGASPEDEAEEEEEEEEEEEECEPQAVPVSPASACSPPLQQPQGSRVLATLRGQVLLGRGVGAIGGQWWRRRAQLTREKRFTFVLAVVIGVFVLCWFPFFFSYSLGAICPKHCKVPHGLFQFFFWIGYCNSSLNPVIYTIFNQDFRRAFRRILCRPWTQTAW

[4] = biological target: T4, α2A-adrenoceptor (Homo sapiens, UniProt P08913); assay: intrinsic activity (antagonist) assay in ready-to-use cells stably expressing the receptor (Invitrogen)
T4 construct: gene ADRA2A
T4 sequence (P08913 1-465): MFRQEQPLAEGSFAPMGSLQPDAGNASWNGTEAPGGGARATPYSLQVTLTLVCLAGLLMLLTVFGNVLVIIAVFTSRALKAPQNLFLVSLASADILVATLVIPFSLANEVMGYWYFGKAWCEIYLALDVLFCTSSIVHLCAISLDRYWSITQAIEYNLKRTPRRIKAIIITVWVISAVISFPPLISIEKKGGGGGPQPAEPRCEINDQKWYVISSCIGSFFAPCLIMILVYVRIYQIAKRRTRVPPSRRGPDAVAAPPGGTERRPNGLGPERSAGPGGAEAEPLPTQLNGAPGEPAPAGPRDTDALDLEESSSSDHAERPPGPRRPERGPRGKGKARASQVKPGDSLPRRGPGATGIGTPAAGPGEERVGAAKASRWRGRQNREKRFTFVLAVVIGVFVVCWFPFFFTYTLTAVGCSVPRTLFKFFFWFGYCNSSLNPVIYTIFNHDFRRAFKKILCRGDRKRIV

- IC50 [1]: 42500 ± 11200 nM
- IC50 [2]: 32.6 ± 0.69 nM
- IC50 [3]: 2070 ± 690 nM
- IC50 [4]: 213 ± 32 nM
Structure (SMILES): Cc1ccccc1N1CCN(CCCN2CCCC2=O)CC1 [EP-47, 1-(3-(4-(o-tolyl)piperazin-1-yl)propyl)pyrrolidin-2-one]
